# Molecular target: T1, NL20 human bronchial epithelial cells expressing human Z-AAT (Homo sapiens, UniProt P01009, E366K)
# T1 construct: expressed in transfected cells; host or cells: NL20 human bronchial epithelial cells (NL20-SI line, doxycycline added)
# Test: AAT Function Assay (MSD Assay NL20-SI Cell Line)
# Assay type: cell-based
# Details: functionally active AAT (AAT-hNE complex) in supernatant of NL20 cells expressing human Z-AAT; read-out: NL20 Func. (EC50)
# Description: A. AAT Function Assay (MSD Assay NL20-SI Cell Line)
# Alpha-1 antitrypsin (AAT) is a SERPIN (serine protease inhibitor) that inactivates enzymes by binding to them covalently. This assay measured the amount of functionally active AAT in a sample in the presence of the disclosed compounds 1-215 by determining the ability of AAT to form an irreversible complex with human neutrophil Elastase (hNE). In practice, the sample (cell supernatant, blood sample, or other) was incubated with excess hNE to allow AAT-Elastase complex to be formed with all functional AAT in the sample. This complex was then captured to a microplate coated with an anti-AAT antibody. The complex captured to the plate was detected with a labeled anti-Elastase antibody and quantitated using a set of AAT standards spanning the concentration range present in the sample. Meso Scale Discovery (MSD) plate reader, Sulfo-tag labeling, and microplates were used to provide high sensitivity and wide dynamic range.
# • 1. Harvest NL20 human bronchial epithelial cells expressing human Z-AAT in OptiMEM™ containing Pen/Strep (P/S) • 2. Seed at 16,000 cells/well in 30 μL (384 well plate) • 3. Centrifuge plates briefly up to speed (1200 rpm) and place into 37° C. incubator overnight Day 2: Compound Addition and Coating Plates with Capture Antibody Compound Addition: • 1. Dispense 40 μL of OptiMEM™ (P/S) with doxycycline (1:1000 stock=0.1 μM final) to each well of the compound plate using a multidrop Combi in hood • 2. Remove cell plate from incubator, flip/blot and take immediately to Bravo to transfer compounds • 3. Return plates to incubator overnight Coat MSD Plates • 1. Dilute capture antibody (Polyclonal Goat anti-AAT) to 5 μg/mL (1:200) in PBS (no BSA). • 2. Dispense 25 μL of diluted capture antibody into all wells of MSD 384-well High Bind plate using the Multidrop equipped with a standard cassette. • 3. Incubate overnight at 4° C. Prepare Blocker A (BSA) Solutions • 1. Prepare solution of 5% MSD Blocker A (BSA) following the manufacturer's instructions. • 2. Further dilute the 5% MSD Blocker A in PBS to 1% (Blocker A) as needed. Day 3: Run MSD Assay
# Block Plates • 1. Wash plate 1× with 50 μL Wash buffer (PBS+0.5% Tween 20), and adds 35 μL 5% Block A buffer to block non-specific binding on washer dispenser • 2. Rotate plates on shaker for 1 hour at 600 rpm
# Prepare M-AAT Standards • 1. Dilute M-AAT stock to 1.6 μg/mL in 1% BSA Blocker A (Stock in −70° C.); then prepare 12×1:2 serial dilutions in 1% Blocker A • 2. The top starting final concentration on MSD plate is 320 ng/mL. These dilutions correspond to a final concentration of 320, 160, 80, 40, 20, 10, 5, 2.5, 1.25, 0.625, 0.312, 0.156 ng/mL.
# Dilution Plate • 1. Add 80 μL of 1% Assay buffer to all wells except columns 1/24 (standards) with Multidrop Combi • 2. Add diluted standards to columns 1 and 24 • 3. Centrifuge dilution plates 1200 rpm briefly
# Cell Plate • 1. Aspirate columns which will have the standards from the cell plates in the hood using 16-pin aspirator
# Prepare Human Neutrophil Elastase (hNE) • 1. Prepare 1 μg/mL Human Neutrophil Elastase by diluting in 1% Blocker A. • a. Small 100 μg vial—add 1 mL PBS (100 μg/mL) • i. This can then be diluted 1:100 in 1% Assay Buffer for a final 1 μg/mL concentration
# MSD—Add hNE (20 μL/well) • 1. After the MSD plate has blocked for at least 1 hour, wash plate 1× with 50 μL Wash buffer (PBS+0.5% Tween 20) and then add 20 μL hNE to each well
# Bravo—Cell Plate—Dilution Plate—MSD Plate
# Using the Bravo aspirate 10 μL from the cell plate, transfer to the dilution plate (9-fold dilution)
# • 1. Mix 25 μL 3×, then aspirate 5 μL, transfer to MSD plate (5-fold dilution) • 2. Mix 10 μL 3×. Total dilution is 45 fold. • 3. Shake plates at 600 rpm for 1.5 hours
# Add Functional detection hNE antibody • 1. Wash plate 1× with wash buffer • 2. […]
# T1 sequence (P01009 25-418 E366K): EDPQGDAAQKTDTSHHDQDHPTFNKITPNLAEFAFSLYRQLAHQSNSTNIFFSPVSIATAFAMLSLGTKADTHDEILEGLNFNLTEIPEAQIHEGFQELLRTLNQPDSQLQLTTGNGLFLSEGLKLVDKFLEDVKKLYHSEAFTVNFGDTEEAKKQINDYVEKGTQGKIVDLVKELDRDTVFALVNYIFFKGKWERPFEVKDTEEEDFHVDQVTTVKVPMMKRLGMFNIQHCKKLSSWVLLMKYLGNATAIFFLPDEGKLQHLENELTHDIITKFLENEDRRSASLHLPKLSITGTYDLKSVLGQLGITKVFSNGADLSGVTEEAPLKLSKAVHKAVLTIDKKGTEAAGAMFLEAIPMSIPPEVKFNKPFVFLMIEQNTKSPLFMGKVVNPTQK
row,EC50 [nM],Compound
1,> 3000,"CC(=O)NCCCc1c(C2CCOCC2)n(-c2ccc(F)cc2)c2cc3cn[nH]c3cc12 [Compound 156, N-[3-[5-(4-fluorophenyl)-6-tetrahydropyran-4-yl-1H-pyrrolo[2,3-f]indazol-7-yl]propyl]acetamide]"
2,1160 to 3000,"O=C(O)C1CC(Cc2c(C3CCOCC3)n(-c3ccc(F)c(Cl)c3)c3cc4cn[nH]c4cc23)C1 (single isomer, unassigned) [Compound 81]"
3,1160 to 3000,O=C(O)[C@H]1C[C@@H](Cc2c(C3CCOCC3)n(-c3ccc(F)cc3)c3cc4cn[nH]c4cc23)C1 [Compound 117]
4,< 1160,"Cc1cc(-n2c(C3CCOCC3)c([C@H]3C[C@](C)(C(=O)O)C3)c3cc4[nH]ncc4cc32)ccc1F (single isomer, unassigned) [Compound 104]"
5,> 3000,O=C(O)C1CC(Cc2c(C3CCOCC3)n(-c3ccc(F)cc3)c3cc4cn[nH]c4cc23)C1 (racemic) [Compound 116]
6,< 1160,Cc1cc(-n2c(C(C)C)c(C3CC(CC(=O)O)C3)c3cc4[nH]ncc4cc32)ccc1F (mixture of isomers) [Compound 22]
7,< 1160,"CC(C)c1c(CC2(C(=O)O)CC2)c2cc3[nH]ncc3cc2n1-c1ccc(F)cc1 [Compound 33, 1-[[5-(4-fluorophenyl)-6-isopropyl-1H-pyrrolo[2,3-f]indazol-7-yl]methyl]cyclopropanecarboxylic Acid]"
8,> 3000,"O=C(O)C1CC2(C1)CC(c1c(C3CCOC3)n(-c3ccc(F)cc3)c3cc4cn[nH]c4cc13)C2 (single isomer, unassigned) [Compound 142, 6-[5-(4-fluorophenyl)-6-tetrahydrofuran-3-yl-1H-pyrrolo[2,3-f]indazol-7-yl]spiro[3.3]heptane-2-carboxylic Acid]"
9,1160 to 3000,Fc1ccc(-n2c(C3CCOCC3)c(CCCn3ccnc3)c3cc4[nH]ncc4cc32)cc1 [Compound 165]
10,1160 to 3000,"O=C(OCc1ccccc1)N1CCCC(Cc2c(C3CCOCC3)n(-c3ccc(F)cc3)c3cc4cn[nH]c4cc23)C1 (stereo not shown) [Compound 154, benzyl 3-[[5-(4-fluorophenyl)-6-tetrahydropyran-4-yl-M-pyrrolo[2,3-f]indazol-7-yl]methyl]piperidine-1-carboxylate]"
11,> 3000,"CC(C)c1c(CCC(=O)O)n(-c2ccc(F)cc2)c2cc3cn[nH]c3cc12 [Compound 194, 3-[5-(4-fluorophenyl)-7-isopropyl-1H-pyrrolo[2,3-f]indazol-6-yl]propanoic Acid]"
12,> 3000,"Cc1cc(-n2c(C3CCOCC3)c(CC3CC3C(=O)O)c3cc4[nH]ncc4cc32)ccc1F (single isomer, unassigned) [Compound 101]"
13,< 1160,"Cc1cc(-n2c(C(C)C)c(CC3(C(=O)O)CC3)c3cc4[nH]ncc4cc32)ccc1F [Compound 17, 1-[[5-(4-fluoro-3-methyl-phenyl)-6-isopropyl-1H-pyrrolo[2,3-f]indazol-7-yl]methyl]cyclopropanecarboxylic Acid]"
14,< 1160,COCC(C)(C)c1c(C2CC(C)(C(=O)O)C2)c2cc3[nH]ncc3cc2n1-c1ccc(F)cc1 (mixture of isomers) [Compound 176]
15,1160 to 3000,"C=C(C)c1c(CCC(=O)O)c2cc3[nH]ncc3cc2n1-c1ccc(F)cc1 [Compound 192, 3-[5-(4-fluorophenyl)-6-isopropenyl-1H-pyrrolo[2,3-f]indazol-7-yl]propanoic Acid]"
16,> 3000,"C=Cc1c(C(C)C)n(-c2ccc(F)c(C)c2)c2cc3cn[nH]c3cc12 [Compound 12, 5-(4-fluoro-3-methyl-phenyl)-6-isopropyl-7-vinyl-1H-pyrrolo[2,3-f]indazole]"

row,EC50 [nM],Compound
1,< 1160,"CC(C)c1c(CCC(=O)O)c2c(F)c3[nH]ncc3cc2n1-c1ccc(F)cc1 [Compound 53, 3-[8-fluoro-5-(4-fluorophenyl)-6-isopropyl-1H-pyrrolo[2,3-f]indazol-7-yl]propanoic Acid]"
2,< 1160,"Cc1cc(-n2c(C3CCOCC3)c(C[C@H]3CC[C@H](C(=O)O)CC3)c3cc4[nH]ncc4cc32)ccc1F (single isomer, unassigned) [Compound 106]"
3,< 1160,Cc1cc(-n2c(C(C)C)c([C@H]3C[C@@H](CC(=O)O)C3)c3cc4[nH]ncc4cc32)ccc1F [Compound 23]
4,> 3000,"Cc1cc(-n2c(C(C)C)cc3cc4[nH]ncc4cc32)ccn1 [Compound 43, 6-isopropyl-5-(2-methyl-4-pyridyl)-1H-pyrrolo[2,3-f]indazole]"
5,1160 to 3000,"[2H]C([2H])([2H])C([2H])(c1c(CCC(=O)O)c2cc3[nH]ncc3cc2n1-c1ccc(F)cc1)C([2H])([2H])[2H] [Compound 193, 3-[5-(4-fluorophenyl)-6-[1,2,2,2-tetradeuterio-1-(trideuteriomethyl)ethyl]-1H-pyrrolo[2,3-f]indazol-7-yl]propanoic Acid]"
6,< 1160,"Cc1cc(-n2c(C(C)C)c(C3CC4(CC(C(=O)O)C4)C3)c3cc4[nH]ncc4cc32)ccc1F (single isomer, unassigned) [Compound 26]"
7,> 3000,"Cc1cc(-n2c(C(C)C)c(S(C)(=O)=O)c3cc4[nH]nc(F)c4cc32)ccc1F [Compound 47, 3-fluoro-5-(4-fluoro-3-methyl-phenyl)-6-isopropyl-7-methylsulfonyl-1H-pyrrolo[2,3-f]indazole]"
8,> 3000,"Cc1cc(-n2c(C(C)C)cc3c(I)c4[nH]ncc4cc32)ccc1F [Compound 48, 5-(4-fluoro-3-methyl-phenyl)-8-iodo-6-isopropyl-1H-pyrrolo[2,3-f]indazole]"
9,1160 to 3000,"CC(C)c1c(CCC(=O)O)c2cc3[nH]ncc3cc2n1-c1ccccc1 [Compound 41, 3-(6-isopropyl-5-phenyl-1H-pyrrolo[2,3-f]indazol-7-yl)propanoic Acid]"
10,< 1160,"Cc1cc(-n2c(C(C)C)c(C3CC3C(=O)O)c3cc4[nH]ncc4cc32)ccc1F (single isomer, unassigned) [Compound 13, 2-[5-(4-fluoro-3-methyl-phenyl)-6-isopropyl-1H-pyrrolo[2,3-f]indazol-7-yl]cyclopropanecarboxylic acid]"
11,< 1160,O=C(O)C1CC2(C1)CC(c1c(C3CCOCC3)n(-c3ccc(F)c(Cl)c3)c3cc4cn[nH]c4cc13)C2 (racemic) [Compound 76]
12,1160 to 3000,"Cc1cc(-n2c(C(C)C)c(C(=O)O)c3cc4[nH]ncc4cc32)ccc1F [Compound 3, 5-(4-fluoro-3-methyl-phenyl)-6-isopropyl-1H-pyrrolo[2,3-f]indazole-7-carboxylic Acid]"
13,1160 to 3000,"O=C(O)C1CC2(C1)CC(c1c(C3CCOCC3)n(-c3ccccc3)c3cc4cn[nH]c4cc13)C2 (stereo not shown) [Compound 123, 6-(5-phenyl-6-tetrahydropyran-4-yl-1H-pyrrolo[2,3-f]indazol-7-yl)spiro[3.3]heptane-2-carboxylic Acid]"
14,> 3000,"CCS(=O)(=O)CCc1c(C2CCOCC2)n(-c2ccc(F)cc2)c2cc3cn[nH]c3cc12 [Compound 158, 7-(2-ethylsulfonylethyl)-5-(4-fluorophenyl)-6-tetrahydropyran-4-yl-1H-pyrrolo[2,3-f]indazole]"
15,> 3000,"CCOC(=O)[C@@H]1C[C@@H]1c1c(C(C)C)n(-c2ccc(F)c(C)c2)c2cc3cn[nH]c3cc12 (racemic) [Compound 15, ethyl (1R,2S)-2-[5-(4-fluoro-3-methyl-phenyl)-6-isopropyl-1H-pyrrolo[2,3-f]indazol-7-yl]cyclopropanecarboxylate]"

# — US11623924B2, “Modulators of alpha-1 antitrypsin” (Vertex Pharmaceuticals Incorporated, priority 2018, dated 2023)
